Results as given in patent US10800792B2, “Inhibitors of Bruton's tyrosine kinase and method of their use” (JANSSEN PHARMACEUTICA NV, priority 2015, dated 2020).

Molecular target: unphosphorylated-BTK kinase domain (UP-BTK), GST-tagged human BTK (389-659aa) (Homo sapiens (Human), UniProt Q06187)
Assay: BTK kinase Lanthascreen binding assay
Conditions: Lanthascreen tracer competition, 60 minutes incubation, pIC50 = negative log of the IC50 in molar
How it was run: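 Compound binding to the unphosphorylated kinase domain was monitored by displacement of a fluorescently labelled tracer in a Lanthascreen format. Potency is given as pIC50, the negative log of the molar IC50.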

unphosphorylated-BTK kinase domain (UP-BTK), GST-tagged human BTK (389-659aa), sequence (Q06187 389-659): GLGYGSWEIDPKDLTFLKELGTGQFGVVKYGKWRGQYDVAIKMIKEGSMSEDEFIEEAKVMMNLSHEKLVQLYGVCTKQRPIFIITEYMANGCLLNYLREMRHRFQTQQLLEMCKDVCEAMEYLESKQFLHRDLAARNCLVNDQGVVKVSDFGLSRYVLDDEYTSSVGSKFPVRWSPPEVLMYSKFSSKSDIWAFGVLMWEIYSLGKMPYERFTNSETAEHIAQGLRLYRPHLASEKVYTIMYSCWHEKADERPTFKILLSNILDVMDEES

Row | SMILES | BTK_I_binding pIC50 | IC50 (read-out: BTK_I_binding pIC50 (converted)) [µM]
1 | N#C/C(=C\C1CC1)C(=O)N1CCC[C@@H](NC(=O)c2sc3nccc4c3c2NC(=O)N4c2ccc(C(=O)Nc3cc(C(F)(F)F)ccn3)cc2F)C1 [Example 836, (R,E)-N-(1-(2-Cyano-3-cyclopropylacryloyl)piperidin-3-yl)-5-(2-fluoro-4-((4-(trifluoromethyl)pyridin-2-yl)carbamoyl)phenyl)-4-oxo-4,5-dihydro-3H-1-thia-3,5,8-triazaacenaphthylene-2-carboxamide] | 7.9 | –
2 | N#C/C(=C\C1CC1)C(=O)N1CCC[C@@H](NC(=O)c2sc3nccc4c3c2NC(=O)N4c2cccc(Oc3ccccc3)c2)C1 [Example 840, (R,E)-N-(1-(2-Cyano-3-cyclopropylacryloyl)piperidin-3-yl)-4-oxo-5-(3-phenoxyphenyl)-4,5-dihydro-3H-1-thia-3,5,8-triazaacenaphthylene-2-carboxamide] | 7.8 | –
3 | C=CC(=O)N1CCC[C@@H](NC(=O)c2sc3nccc4c3c2NC(=O)N4c2cc(-c3cccc(F)c3F)ccc2C)C1 [Example 842, (R)—N-(1-Acryloylpiperidin-3-yl)-5-(2′,3′-difluoro-4-methyl-[1,1′-biphenyl]-3-yl)-4-oxo-4,5-dihydro-3H-1-thia-3,5,8-triazaacenaphthylene-2-carboxamide] | 7.7 | –
4 | Cc1cc(Oc2ccccc2)ccc1N1C(=O)Nc2c(C(=O)N[C@@H]3CCN(C(=O)/C(C#N)=C/C4CC4)C3)sc3nccc1c23 [Example 844, (R,E)-N-(1-(2-Cyano-3-cyclopropylacryloyl)pyrrolidin-3-yl)-5-(2-methyl-4-phenoxyphenyl)-4-oxo-4,5-dihydro-3H-1-thia-3,5,8-triazaacenaphthylene-2-carboxamide] | 7.6 | –
5 | C=CC(=O)N1CCC[C@@H](NC(=O)c2sc3nccc4c3c2NC(=O)N4c2ccc(Oc3ccccn3)cc2)C1 [Example 846, (R)—N-(1-Acryloylpiperidin-3-yl)-4-oxo-5-(4-(pyridin-2-yloxy)phenyl)-4,5-dihydro-3H-1-thia-3,5,8-triazaacenaphthylene-2-carboxamide] | 7.6 | –

Now from value to compound:

Row | BTK_I_binding pIC50 | IC50 (read-out: BTK_I_binding pIC50 (converted)) [µM] | SMILES
6 | 7.9 | – | Cc1cc(Oc2ccccc2)ccc1N1C(=O)Nc2c(C(=O)N[C@@H]3CCN(C#N)C3)sc3nccc1c23 [Example 837, (R)—N-(1-Cyanopyrrolidin-3-yl)-5-(2-methyl-4-phenoxyphenyl)-4-oxo-4,5-dihydro-3H-1-thia-3,5,8-triazaacenaphthylene-2-carboxamide]
7 | 7.9 | – | Cc1cc(Oc2ccccc2)ccc1N1C(=O)Nc2c(C(=O)N[C@@H]3CCN(C(=O)CC#N)C3)sc3nccc1c23 [Example 838, (R)—N-(1-(2-Cyanoacetyl)pyrrolidin-3-yl)-5-(2-methyl-4-phenoxyphenyl)-4-oxo-4,5-dihydro-3H-1-thia-3,5,8-triazaacenaphthylene-2-carboxamide]
8 | – | 0.0126 | C=CC(=O)N1CCC[C@@H](NC(=O)c2sc3nccc4c3c2NC(=O)N4c2ccc(Oc3ccccc3)cc2C)C1 [Example 839, (R)—N-(1-Acryloylpiperidin-3-yl)-5-(2-methyl-4-phenoxyphenyl)-4-oxo-4,5-dihydro-3H-1-thia-3,5,8-triazaacenaphthylene-2-carboxamide]
9 | 7.7 | – | COCCC(=O)N1CCC[C@@H](NC(=O)c2sc3nccc4c3c2NC(=O)N4c2ccc(Oc3ccccc3)cc2C)C1 [Example 841, (R)—N-(1-(3-Methoxypropanoyl)piperidin-3-yl)-5-(2-methyl-4-phenoxyphenyl)-4-oxo-4,5-dihydro-3H-1-thia-3,5,8-triazaacenaphthylene-2-carboxamide]
10 | 7.6 | – | CCC(=O)N1CC[C@@H](NC(=O)c2sc3nccc4c3c2NC(=O)N4c2ccc(Oc3ccccc3)cc2C)C1 [Example 843, (R)-5-(2-Methyl-4-phenoxyphenyl)-4-oxo-N-(1-propionylpyrrolidin-3-yl)-4,5-dihydro-3H-1-thia-3,5,8-triazaacenaphthylene-2-carboxamide]
